# How the values were obtained:
# Assay type in all cases: biochemical
# PfSnf2L [1] = molecular target: T1, PfSnf2L (Plasmodium falciparum, UniProt Q8IIW0); assay: […]-gamma-ATP hydrolysis, thin-layer chromatography; conditions: 500 µM ATP, 1.5 mM MgCl2, pH 7.6, 30 °C, with or without mononucleosomes
# T1 construct: gene PF3D7_1104200; amino acids 250-1426, C-terminal 10xHis tag, baculovirus, Sf21 insect cells
# T1 sequence (Q8IIW0 250-1426): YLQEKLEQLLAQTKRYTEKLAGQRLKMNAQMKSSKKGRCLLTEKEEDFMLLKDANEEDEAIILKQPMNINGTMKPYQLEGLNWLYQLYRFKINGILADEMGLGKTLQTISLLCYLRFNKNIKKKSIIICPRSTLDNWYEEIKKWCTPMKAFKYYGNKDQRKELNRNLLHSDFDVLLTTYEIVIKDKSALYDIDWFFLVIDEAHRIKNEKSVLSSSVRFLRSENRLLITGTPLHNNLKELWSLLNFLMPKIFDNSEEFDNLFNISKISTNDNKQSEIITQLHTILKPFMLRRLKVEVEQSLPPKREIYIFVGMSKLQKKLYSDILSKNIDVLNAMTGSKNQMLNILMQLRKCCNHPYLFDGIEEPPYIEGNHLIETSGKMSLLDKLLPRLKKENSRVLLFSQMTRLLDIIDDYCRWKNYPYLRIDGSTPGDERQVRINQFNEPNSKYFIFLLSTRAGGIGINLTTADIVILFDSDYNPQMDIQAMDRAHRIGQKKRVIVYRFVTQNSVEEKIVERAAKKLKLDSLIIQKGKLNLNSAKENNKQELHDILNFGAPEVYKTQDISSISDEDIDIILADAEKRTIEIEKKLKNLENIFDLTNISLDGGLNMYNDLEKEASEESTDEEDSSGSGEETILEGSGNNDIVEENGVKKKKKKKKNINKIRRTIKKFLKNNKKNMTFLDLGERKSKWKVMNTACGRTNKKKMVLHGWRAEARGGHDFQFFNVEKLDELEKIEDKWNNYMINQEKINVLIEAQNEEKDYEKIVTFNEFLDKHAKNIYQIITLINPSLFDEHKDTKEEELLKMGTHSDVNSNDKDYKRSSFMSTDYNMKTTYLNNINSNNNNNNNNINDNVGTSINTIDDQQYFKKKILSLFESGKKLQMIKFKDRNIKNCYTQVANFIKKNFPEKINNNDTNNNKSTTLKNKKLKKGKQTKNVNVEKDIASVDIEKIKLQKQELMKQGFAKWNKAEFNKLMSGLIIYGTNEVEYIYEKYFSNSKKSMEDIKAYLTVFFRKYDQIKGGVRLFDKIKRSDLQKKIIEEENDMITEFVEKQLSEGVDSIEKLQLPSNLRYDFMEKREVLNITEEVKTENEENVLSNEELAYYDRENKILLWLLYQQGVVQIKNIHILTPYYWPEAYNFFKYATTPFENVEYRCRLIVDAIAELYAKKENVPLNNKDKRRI
# HsSNF2L = molecular target: T2, HsSNF2L (Homo sapiens, UniProt P28370); assay: as above; conditions: 500 µM ATP, 1.5 mM MgCl2, pH 7.6, 30 °C, with or without mononucleosomes
# T2 construct: gene SMARCA1; 6xHis tag, baculovirus, Sf21 insect cells
# T2 sequence (P28370 whole entry): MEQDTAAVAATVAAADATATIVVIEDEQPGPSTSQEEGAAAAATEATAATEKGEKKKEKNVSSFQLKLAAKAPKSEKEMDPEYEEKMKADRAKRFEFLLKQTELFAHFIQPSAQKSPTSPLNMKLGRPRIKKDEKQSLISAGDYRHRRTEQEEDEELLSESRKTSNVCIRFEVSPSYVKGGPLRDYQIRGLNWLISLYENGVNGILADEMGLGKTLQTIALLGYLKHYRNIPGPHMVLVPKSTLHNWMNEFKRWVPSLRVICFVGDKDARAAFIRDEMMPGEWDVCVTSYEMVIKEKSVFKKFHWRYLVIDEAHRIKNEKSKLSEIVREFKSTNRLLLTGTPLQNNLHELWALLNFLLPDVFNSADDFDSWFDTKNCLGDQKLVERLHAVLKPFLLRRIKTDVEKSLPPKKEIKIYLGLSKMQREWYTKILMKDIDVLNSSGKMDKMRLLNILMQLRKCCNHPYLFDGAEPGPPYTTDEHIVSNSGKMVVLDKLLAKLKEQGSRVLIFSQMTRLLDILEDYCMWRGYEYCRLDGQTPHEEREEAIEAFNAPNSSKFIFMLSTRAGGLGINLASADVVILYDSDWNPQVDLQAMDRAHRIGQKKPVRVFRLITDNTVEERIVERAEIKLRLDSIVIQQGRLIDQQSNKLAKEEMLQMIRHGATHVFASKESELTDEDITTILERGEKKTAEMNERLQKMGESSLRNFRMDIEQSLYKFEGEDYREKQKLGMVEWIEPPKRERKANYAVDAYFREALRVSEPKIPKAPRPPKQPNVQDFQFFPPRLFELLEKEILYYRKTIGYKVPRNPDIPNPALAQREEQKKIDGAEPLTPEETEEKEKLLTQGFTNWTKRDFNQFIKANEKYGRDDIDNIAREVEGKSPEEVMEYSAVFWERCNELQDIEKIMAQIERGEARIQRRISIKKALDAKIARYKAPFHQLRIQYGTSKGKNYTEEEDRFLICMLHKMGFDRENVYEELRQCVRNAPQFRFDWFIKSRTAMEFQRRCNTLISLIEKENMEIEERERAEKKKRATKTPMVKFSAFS
# PfSnf2L [2] = molecular target: T1, PfSnf2L; assay: ADP biosensor (TMR-ParM) ATPase assay, single dose response; conditions: 0.4 µM enzyme, 125 µM ATP, plasmid DNA, 5 µM H4 peptide, 1.5 mM MgCl2, pH 8.6, 28 °C; allosteric
Structure (SMILES),"32P-gamma-ATP hydrolysis, thin-layer chromatography (PfSnf2L [1])","32P-gamma-ATP hydrolysis, thin-layer chromatography (HsSNF2L)","ADP biosensor (TMR-ParM) ATPase assay, single dose response (PfSnf2L [2])"
Nc1ncnc2c1ncn2[C@@H]1O[C@H](COP(=O)(O)OP(=O)(O)OP(=O)(O)O)[C@@H](O)[C@H]1O [ATP],The non-stimulated or nucleosome-stimulated ATP hydrolysis rate of PfSnf2L/HsSNF2L,The non-stimulated or nucleosome-stimulated ATP hydrolysis rate of PfSnf2L/HsSNF2L,
CCCCCCCCCCCCCCCC[n+]1ccn(Cc2ccccc2)c1C [NH125],,,ATP hydrolysis kinetic of PfSnf2L in presence of NH125 in varying concentrations

# Source: PMC11946908, “Plasmodium blood stage development requires the chromatin remodeller Snf2L” (Nature, 2025)
